# In ChEMBL document CHEMBL1143799, “Synthesis and primary cytotoxicity evaluation of new imidazo[2,1-b]thiazole derivatives” (2007):
# How the values were obtained:
# Type in all cases: functional
# CCRF-CEM = experiment: Growth inhibition of human CCRF-CEM cells after 48 hrs by SRB protein assay
# MOLT-4 = experiment: Growth inhibition of human MOLT4 cells after 48 hrs by SRB protein assay; conditions: MOLT-4, 48 h
# RPMI-8226 = experiment: Growth inhibition of human RPMI8226 cells after 48 hrs by SRB protein assay; conditions: RPMI-8226, 48 h
# A549 = experiment: Growth inhibition of human A549 cells after 48 hrs by SRB protein assay; conditions: A549, 48 h
# EKVX = experiment: Growth inhibition of human EKVX cells after 48 hrs by SRB protein assay
# HOP-92 = experiment: Growth inhibition of human HOP92 cells after 48 hrs by SRB protein assay; conditions: HOP-92, 48 h
# NCI-H23 = experiment: Growth inhibition of human NCI-H23 cells after 48 hrs by SRB protein assay; conditions: NCI-H23, 48 h
# NCI-H322M = experiment: Growth inhibition of human NCI-H322M cells after 48 hrs by SRB protein assay
# NCI-H460 = experiment: Growth inhibition of human NCI-H460 cells after 48 hrs by SRB protein assay; conditions: NCI-H460, 48 h
# NCI-H522 = experiment: Growth inhibition of human NCI-H522 cells after 48 hrs by SRB protein assay; conditions: NCI-H522, 48 h
# COLO 205 = experiment: Growth inhibition of human COLO205 cells after 48 hrs by SRB protein assay; conditions: COLO 205, 48 h
# HCC 2998 = experiment: Growth inhibition of human HCC2998 cells after 48 hrs by SRB protein assay; conditions: HCC 2998, 48 h
# KM12 = experiment: Growth inhibition of human KM12 cells after 48 hrs by SRB protein assay; conditions: KM12, 48 h
# SF-295 = experiment: Growth inhibition of human SF295 cells after 48 hrs by SRB protein assay; conditions: SF-295, 48 h
# SF-539 = experiment: Growth inhibition of human SF539 cells after 48 hrs by SRB protein assay; conditions: SF-539, 48 h
# SNB-19 = experiment: Growth inhibition of human SNB19 cells after 48 hrs by SRB protein assay; conditions: SNB-19, 48 h
# SNB-75 = experiment: Growth inhibition of human SNB75 cells after 48 hrs by SRB protein assay; conditions: SNB-75, 48 h
# U-251 = experiment: Growth inhibition human U251 of cells after 48 hrs by SRB protein assay; conditions: U-251, 48 h
# M14 = experiment: Growth inhibition of human M14 cells after 48 hrs by SRB protein assay; conditions: M14, 48 h
# SK-MEL-28 = experiment: Growth inhibition of human SK-MEL-28 cells after 48 hrs by SRB protein assay; conditions: SK-MEL-28, 48 h
# UACC-257 = experiment: Growth inhibition of human UACC257 cells after 48 hrs by SRB protein assay; conditions: UACC-257, 48 h
# UACC-62 = experiment: Growth inhibition of human UACC62 cells after 48 hrs by SRB protein assay; conditions: UACC-62, 48 h
# IGROV-1 = experiment: Growth inhibition of human IGROV1 cells after 48 hrs by SRB protein assay; conditions: IGROV-1, 48 h
# OVCAR-8 = experiment: Growth inhibition of human OVCAR8 cells after 48 hrs by SRB protein assay; conditions: OVCAR-8, 48 h
# SK-OV-3 = experiment: Growth inhibition of human SK-OV-3 cells after 48 hrs by SRB protein assay; conditions: SK-OV-3, 48 h
# [1] = Growth inhibition of human 786O cells after 48 hrs by SRB protein assay; conditions: 786-0, 48 h
# ACHN = experiment: Growth inhibition of human ACHN cells after 48 hrs by SRB protein assay
# CAKI-1 = experiment: Growth inhibition of human CAKI1 cells after 48 hrs by SRB protein assay; conditions: CAKI-1, 48 h
# RXF 393 = experiment: Growth inhibition of human RXF393 cells after 48 hrs by SRB protein assay; conditions: RXF 393, 48 h
# SN12C = experiment: Growth inhibition of human SN12C cells after 48 hrs by SRB protein assay
# UO-31 = experiment: Growth inhibition of human UO31 cells after 48 hrs by SRB protein assay; conditions: UO-31, 48 h
# PC-3 = experiment: Growth inhibition of human PC3 cells after 48 hrs by SRB protein assay; conditions: PC-3, 48 h
# DU-145 = experiment: Growth inhibition of human DU145 cells after 48 hrs by SRB protein assay; conditions: DU-145, 48 h
# MCF7 = experiment: Growth inhibition of human MCF7 cells after 48 hrs by SRB protein assay; conditions: MCF7, 48 h
# MDA-MB-231 = experiment: Growth inhibition of MDA-MB-231 cells after 48 hrs by SRB protein assay; conditions: Homo sapiens, MDA-MB-231, 48 h
# SK-MEL-5 = experiment: Growth inhibition of human SK-MEL-5 cells after 48 hrs by SRB protein assay; conditions: SK-MEL-5, 48 h
# BT-549 = experiment: Growth inhibition of human BT549 cells after 48 hrs by SRB protein assay; conditions: BT-549, 48 h
# T47D = experiment: Growth inhibition of human T47D cells after 48 hrs by SRB protein assay
# OVCAR-5 = experiment: Growth inhibition of human OVCAR5 cells after 48 hrs by SRB protein assay; conditions: OVCAR-5, 48 h
smiles,measurement,setting,value
O=C(Cc1csc2nc(-c3ccc(Br)cc3)cn12)N/N=C/c1ccc(Cl)cc1Cl,GI50,CCRF-CEM,39.8 µM
same,TGI,CCRF-CEM; read-out: Log TGI (converted),> 100 µM
same,GI50,MOLT-4,1 µM
same,TGI,MOLT-4; read-out: Log TGI (converted),26.3 µM
same,GI50,RPMI-8226,79.4 µM
same,TGI,RPMI-8226; read-out: Log TGI (converted),> 100 µM
same,GI50,A549,17 µM
same,TGI,A549; read-out: Log TGI (converted),37.2 µM
same,GI50,EKVX,31.6 µM
same,TGI,EKVX; read-out: Log TGI (converted),> 100 µM
same,GI50,HOP-92,28.2 µM
same,TGI,HOP-92; read-out: Log TGI (converted),> 100 µM
same,GI50,NCI-H23,25.7 µM
same,TGI,NCI-H23; read-out: Log TGI (converted),56.2 µM
same,GI50,NCI-H322M,24.5 µM
same,TGI,NCI-H322M; read-out: Log TGI (converted),69.2 µM
same,GI50,NCI-H460,> 100 µM
same,TGI,NCI-H460; read-out: Log TGI (converted),> 100 µM
same,GI50,NCI-H522,25.7 µM
same,TGI,NCI-H522; read-out: Log TGI (converted),> 100 µM
same,GI50,COLO 205,75.9 µM
same,TGI,COLO 205; read-out: Log TGI (converted),> 100 µM
same,GI50,HCC 2998,20 µM
same,TGI,HCC 2998; read-out: Log TGI (converted),44.7 µM
same,GI50,KM12,38 µM
same,TGI,KM12; read-out: Log TGI (converted),> 100 µM
same,GI50,SF-295,34.7 µM
same,TGI,SF-295; read-out: Log TGI (converted),> 100 µM
same,GI50,SF-539,26.9 µM
same,TGI,SF-539; read-out: Log TGI (converted),63.1 µM
same,GI50,SNB-19,95.5 µM
same,TGI,SNB-19; read-out: Log TGI (converted),> 100 µM
same,GI50,SNB-75,37.2 µM
same,TGI,SNB-75; read-out: Log TGI (converted),> 100 µM
same,GI50,U-251,20.4 µM
same,TGI,U-251; read-out: Log TGI (converted),44.7 µM
same,GI50,M14,33.1 µM
same,TGI,M14; read-out: Log TGI (converted),> 100 µM
same,GI50,SK-MEL-28,> 100 µM
same,TGI,SK-MEL-28; read-out: Log TGI (converted),> 100 µM
same,GI50,UACC-257,69.2 µM
same,TGI,UACC-257; read-out: Log TGI (converted),> 100 µM
same,GI50,UACC-62,23.4 µM
same,TGI,UACC-62; read-out: Log TGI (converted),67.6 µM
same,GI50,IGROV-1,15.8 µM
same,TGI,IGROV-1; read-out: Log TGI (converted),45.7 µM
same,GI50,OVCAR-8,18.6 µM
same,TGI,OVCAR-8; read-out: Log TGI (converted),50.1 µM
same,GI50,SK-OV-3,> 100 µM
same,TGI,SK-OV-3; read-out: Log TGI (converted),> 100 µM
same,GI50,[1],25.7 µM
same,TGI,[1]; read-out: Log TGI (converted),74.1 µM
same,GI50,ACHN,22.4 µM
same,TGI,ACHN; read-out: Log TGI (converted),53.7 µM
same,GI50,CAKI-1,36.3 µM
same,TGI,CAKI-1; read-out: Log TGI (converted),> 100 µM
same,GI50,RXF 393,28.2 µM
same,TGI,RXF 393; read-out: Log TGI (converted),85.1 µM
same,GI50,SN12C,85.1 µM
same,TGI,SN12C; read-out: Log TGI (converted),> 100 µM
same,GI50,UO-31,72.4 µM
same,TGI,UO-31; read-out: Log TGI (converted),> 100 µM
same,GI50,PC-3,30.2 µM
same,TGI,PC-3; read-out: Log TGI (converted),> 100 µM
same,GI50,DU-145,26.3 µM
same,TGI,DU-145; read-out: Log TGI (converted),> 100 µM
same,GI50,MCF7,> 100 µM
same,TGI,MCF7; read-out: Log TGI (converted),> 100 µM
same,GI50,MDA-MB-231,26.3 µM
same,TGI,MDA-MB-231; read-out: Log TGI (converted),> 100 µM
same,GI50,SK-MEL-5,44.7 µM
same,TGI,SK-MEL-5; read-out: Log TGI (converted),> 100 µM
same,GI50,BT-549,25.7 µM
same,TGI,BT-549; read-out: Log TGI (converted),77.6 µM
same,GI50,T47D,> 100 µM
same,TGI,T47D; read-out: Log TGI (converted),> 100 µM
same,GI50,OVCAR-5,28.8 µM
same,TGI,OVCAR-5; read-out: Log TGI (converted),67.6 µM
